Data published in US20180021361A1, “COMBINATION DRUG TREATMENT FOR HEPATITIS C INFECTION” (JANSSEN PHARMACEUTICALS, INC., priority 2016, published 2018).
Entries after “also recorded” stand apart in the source; their conditions may differ.

Key:
[1] = Phase 2a open-label combination study, pharmacokinetics; format: in vivo, human
Description: A randomized, Phase 2a, open-label study was carried out to evaluate the safety, pharmacokinetics and efficacy of the combination of Compound (III), Odalasvir and Simeprevir in Genotype 1 treatment-naïve subjects with chronic hepatitis C. Other treatment-naïve subjects included Genotype 2, 3, 4, 5 and 6. The aim of the study was to determine the efficacy, pharmacokinetics (PK), and safety of Compound (III)+Odalasvir±SMV in HCV-infected subjects. […] Efficacy, PK and safety evaluations were conducted during and through 24 weeks post dosing. Up to 15 cohorts were enrolled; data was generated from cohorts that have completed dosing.

[2] = Phase-1 drug-drug interaction study, plasma PK in healthy volunteers
Description: A drug-drug interaction study (DDI) study is a study designed to investigate whether a drug alters the pharmacokinetics of another drug or drugs or their metabolites.
Compound (III) Subjects received 800 mg of Compound (III) once daily from Days 1-3, Days 11-13, and Days 21-23. PK blood samples for determination of Compound (III) and metabolite concentrations were collected in reference to the Day 3, Day 13, and Day 23 doses.
Simeprevir—Subjects received 150 mg of Simeprevir (SMV) once daily from Days 4-23. PK blood samples for determination of SMV concentrations were collected in reference to the Day 10, Day 13, Day 20, and Day 23 doses.
Odalasvir—Subjects received a loading dose of 150 mg on Day 14, and 50 mg of Odalasvir once daily from Days 15-23. PK blood samples for determination of Odalasvir concentrations were collected in reference to the Day 20 and Day 23 doses.
Compound (III)—Subjects received 800 mg of Compound (III) once daily from Days 1-3, Days 11-13 and Days 21-23. PK blood samples for determination of Compound (III) and metabolite concentrations were collected in reference to the Day 3, Day 13, and Day 23 doses.
Simeprevir—Subjects receive 150 mg of SMV once daily from Days 4-23. PK blood samples for determination of SMV concentrations were collected in reference to the Day 20 and Day 23 doses.
Odalasvir—Subjects receive a loading dose of 150 mg on Day 4, and 50 mg of Odalasvir once daily from Days 5-23. PK blood samples for determination of Odalasvir concentrations were collected in reference to the Day 10, Day 13, Day 20, and Day 23 doses.
A primary objective was to evaluate the effect of multiple oral doses of Odalasvir (alone), Simeprevir (alone), and Odalasvir and Simeprevir on the multiple oral dose PK of Compound (III) (and certain metabolites thereof, such as the major metabolites in systemic circulation) in healthy volunteers. Other objectives were to evaluate the safety and tolerability of multiple oral doses of Compound (III) when administered alone and in combination with single and multiple oral doses of Odalasvir and/or Simeprevir in healthy volunteers; to determine the potential effect of Compound of Compound (III) and/or Odalasvir on the steady-state PK of Simeprevir in healthy volunteers; to determine the potential effect of Compound of Compound (III) and/or Simeprevir on the steady state PK of Odalasvir in healthy volunteers.
Various other PK parameters were estimated including: […], t1/2, Tmax, Tlast, CL/F, Vz/F, and λz.
Odalasvir: 150 mg loading dose; 50 mg for the remainder of the study period.

BSEP = BSEP (Homo sapiens, UniProt O95342); settings: efflux transporter; cited from earlier work
BSEP, sequence (O95342 whole entry): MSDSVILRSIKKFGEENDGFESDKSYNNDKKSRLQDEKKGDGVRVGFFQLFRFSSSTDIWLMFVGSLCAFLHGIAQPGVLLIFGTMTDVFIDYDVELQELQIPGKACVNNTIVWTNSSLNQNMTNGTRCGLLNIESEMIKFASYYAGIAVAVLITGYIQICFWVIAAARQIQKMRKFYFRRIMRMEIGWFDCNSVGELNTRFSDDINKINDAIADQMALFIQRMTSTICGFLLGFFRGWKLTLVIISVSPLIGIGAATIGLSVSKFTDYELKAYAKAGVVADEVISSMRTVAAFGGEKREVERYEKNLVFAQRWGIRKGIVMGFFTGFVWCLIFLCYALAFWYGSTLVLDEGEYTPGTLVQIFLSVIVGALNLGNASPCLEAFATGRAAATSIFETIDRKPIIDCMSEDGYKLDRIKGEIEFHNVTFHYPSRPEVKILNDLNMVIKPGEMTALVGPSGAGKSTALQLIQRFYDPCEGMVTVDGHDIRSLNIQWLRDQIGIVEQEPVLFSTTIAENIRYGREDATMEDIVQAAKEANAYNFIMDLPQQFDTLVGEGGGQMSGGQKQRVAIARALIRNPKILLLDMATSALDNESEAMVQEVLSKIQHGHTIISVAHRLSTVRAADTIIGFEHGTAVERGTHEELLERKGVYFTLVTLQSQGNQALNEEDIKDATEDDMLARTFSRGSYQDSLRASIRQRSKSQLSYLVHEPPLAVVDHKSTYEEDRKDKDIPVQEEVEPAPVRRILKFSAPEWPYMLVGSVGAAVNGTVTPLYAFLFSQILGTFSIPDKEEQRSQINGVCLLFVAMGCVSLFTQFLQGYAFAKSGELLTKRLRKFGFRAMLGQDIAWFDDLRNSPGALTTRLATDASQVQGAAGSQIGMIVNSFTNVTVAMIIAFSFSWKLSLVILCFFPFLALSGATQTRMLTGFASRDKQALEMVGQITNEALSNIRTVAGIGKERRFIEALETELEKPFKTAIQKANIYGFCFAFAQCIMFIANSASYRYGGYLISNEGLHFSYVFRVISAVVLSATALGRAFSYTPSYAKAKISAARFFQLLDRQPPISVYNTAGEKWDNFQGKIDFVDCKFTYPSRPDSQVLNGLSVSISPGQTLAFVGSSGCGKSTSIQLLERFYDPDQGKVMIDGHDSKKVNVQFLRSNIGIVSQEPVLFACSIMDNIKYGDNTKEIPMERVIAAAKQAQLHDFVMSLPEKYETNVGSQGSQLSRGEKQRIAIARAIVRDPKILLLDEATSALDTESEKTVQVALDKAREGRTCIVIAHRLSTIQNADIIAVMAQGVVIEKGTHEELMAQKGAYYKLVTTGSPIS

MRP2 = MRP2 (Homo sapiens, UniProt Q92887); settings: efflux transporter; cited from earlier work
MRP2, sequence (Q92887 whole entry): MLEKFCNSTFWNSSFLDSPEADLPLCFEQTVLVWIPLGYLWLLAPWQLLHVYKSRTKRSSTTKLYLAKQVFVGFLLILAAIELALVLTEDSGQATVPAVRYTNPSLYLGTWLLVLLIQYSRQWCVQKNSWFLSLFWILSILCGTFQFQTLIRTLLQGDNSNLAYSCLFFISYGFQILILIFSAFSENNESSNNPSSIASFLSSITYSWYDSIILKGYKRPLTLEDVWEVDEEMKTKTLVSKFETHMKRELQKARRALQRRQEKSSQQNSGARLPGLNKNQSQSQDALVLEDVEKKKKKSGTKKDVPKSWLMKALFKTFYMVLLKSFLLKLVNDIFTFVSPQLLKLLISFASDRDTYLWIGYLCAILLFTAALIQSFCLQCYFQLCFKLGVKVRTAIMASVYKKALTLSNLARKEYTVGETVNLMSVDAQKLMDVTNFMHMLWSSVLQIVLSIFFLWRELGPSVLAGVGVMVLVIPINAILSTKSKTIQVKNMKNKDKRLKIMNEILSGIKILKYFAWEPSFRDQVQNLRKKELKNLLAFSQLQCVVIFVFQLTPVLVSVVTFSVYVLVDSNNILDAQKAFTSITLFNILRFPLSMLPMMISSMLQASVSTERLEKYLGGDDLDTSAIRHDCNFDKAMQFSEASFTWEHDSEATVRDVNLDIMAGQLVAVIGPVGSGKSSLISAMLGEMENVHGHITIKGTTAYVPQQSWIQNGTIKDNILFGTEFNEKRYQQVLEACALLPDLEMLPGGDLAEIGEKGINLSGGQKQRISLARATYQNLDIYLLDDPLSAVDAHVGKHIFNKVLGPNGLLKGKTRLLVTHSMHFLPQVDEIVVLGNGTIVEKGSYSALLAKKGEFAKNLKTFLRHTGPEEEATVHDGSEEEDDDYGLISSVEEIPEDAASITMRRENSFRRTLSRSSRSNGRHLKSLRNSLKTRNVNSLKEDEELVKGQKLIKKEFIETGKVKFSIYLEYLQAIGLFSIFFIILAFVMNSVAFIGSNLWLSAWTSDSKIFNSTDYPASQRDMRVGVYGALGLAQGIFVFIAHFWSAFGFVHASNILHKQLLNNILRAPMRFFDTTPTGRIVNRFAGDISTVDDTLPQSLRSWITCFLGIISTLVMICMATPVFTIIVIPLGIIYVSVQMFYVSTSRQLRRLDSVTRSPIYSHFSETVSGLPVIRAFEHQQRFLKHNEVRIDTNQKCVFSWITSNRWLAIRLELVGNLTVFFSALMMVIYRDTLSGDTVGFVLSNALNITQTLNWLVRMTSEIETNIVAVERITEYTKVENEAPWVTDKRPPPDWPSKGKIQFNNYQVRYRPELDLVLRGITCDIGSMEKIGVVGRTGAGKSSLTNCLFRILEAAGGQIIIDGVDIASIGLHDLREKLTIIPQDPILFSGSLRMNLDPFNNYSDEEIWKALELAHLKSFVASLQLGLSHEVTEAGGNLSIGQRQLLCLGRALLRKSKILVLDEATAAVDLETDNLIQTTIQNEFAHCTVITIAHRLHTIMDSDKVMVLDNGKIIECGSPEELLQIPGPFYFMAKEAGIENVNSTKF

P-gp = P-gp (Homo sapiens, UniProt P08183); settings: efflux transporter; cited from earlier work
P-gp, sequence (P08183 whole entry): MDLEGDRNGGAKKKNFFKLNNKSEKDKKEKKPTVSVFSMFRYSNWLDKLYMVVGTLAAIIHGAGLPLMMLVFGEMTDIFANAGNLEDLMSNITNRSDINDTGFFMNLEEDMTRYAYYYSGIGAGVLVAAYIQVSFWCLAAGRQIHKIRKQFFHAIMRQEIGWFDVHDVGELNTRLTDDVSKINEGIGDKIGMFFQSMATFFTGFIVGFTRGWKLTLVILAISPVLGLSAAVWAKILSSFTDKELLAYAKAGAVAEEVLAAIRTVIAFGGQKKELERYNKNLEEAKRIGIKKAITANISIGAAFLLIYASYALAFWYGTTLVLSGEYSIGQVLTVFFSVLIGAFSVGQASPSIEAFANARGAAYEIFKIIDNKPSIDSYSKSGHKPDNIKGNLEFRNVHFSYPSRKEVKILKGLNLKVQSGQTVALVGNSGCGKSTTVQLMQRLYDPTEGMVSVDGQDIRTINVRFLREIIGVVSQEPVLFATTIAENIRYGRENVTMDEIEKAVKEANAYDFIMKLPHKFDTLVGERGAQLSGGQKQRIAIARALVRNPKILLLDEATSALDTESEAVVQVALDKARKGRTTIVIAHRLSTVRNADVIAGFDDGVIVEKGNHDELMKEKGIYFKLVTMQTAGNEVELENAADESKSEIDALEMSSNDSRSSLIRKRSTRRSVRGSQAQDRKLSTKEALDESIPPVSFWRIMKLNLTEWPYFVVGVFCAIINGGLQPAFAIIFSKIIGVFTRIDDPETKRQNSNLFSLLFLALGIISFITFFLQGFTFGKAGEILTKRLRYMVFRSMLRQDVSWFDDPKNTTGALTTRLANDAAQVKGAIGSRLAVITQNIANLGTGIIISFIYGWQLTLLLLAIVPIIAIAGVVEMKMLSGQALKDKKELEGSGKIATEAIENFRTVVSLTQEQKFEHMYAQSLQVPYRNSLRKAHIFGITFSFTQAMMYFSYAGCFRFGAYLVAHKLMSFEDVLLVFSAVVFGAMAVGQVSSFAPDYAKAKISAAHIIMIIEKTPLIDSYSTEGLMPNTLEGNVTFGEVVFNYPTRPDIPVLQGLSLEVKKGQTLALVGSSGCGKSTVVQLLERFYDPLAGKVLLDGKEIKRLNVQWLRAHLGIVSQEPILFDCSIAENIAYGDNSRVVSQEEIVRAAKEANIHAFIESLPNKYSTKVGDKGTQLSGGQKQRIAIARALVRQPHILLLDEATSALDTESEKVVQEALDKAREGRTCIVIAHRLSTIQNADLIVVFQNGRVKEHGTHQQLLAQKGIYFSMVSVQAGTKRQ

OATP1B1 = target: T1, OATP1B1 (Homo sapiens, UniProt Q9Y6L6); settings: uptake transporter; cited from earlier work
T1 sequence (Q9Y6L6 1-691): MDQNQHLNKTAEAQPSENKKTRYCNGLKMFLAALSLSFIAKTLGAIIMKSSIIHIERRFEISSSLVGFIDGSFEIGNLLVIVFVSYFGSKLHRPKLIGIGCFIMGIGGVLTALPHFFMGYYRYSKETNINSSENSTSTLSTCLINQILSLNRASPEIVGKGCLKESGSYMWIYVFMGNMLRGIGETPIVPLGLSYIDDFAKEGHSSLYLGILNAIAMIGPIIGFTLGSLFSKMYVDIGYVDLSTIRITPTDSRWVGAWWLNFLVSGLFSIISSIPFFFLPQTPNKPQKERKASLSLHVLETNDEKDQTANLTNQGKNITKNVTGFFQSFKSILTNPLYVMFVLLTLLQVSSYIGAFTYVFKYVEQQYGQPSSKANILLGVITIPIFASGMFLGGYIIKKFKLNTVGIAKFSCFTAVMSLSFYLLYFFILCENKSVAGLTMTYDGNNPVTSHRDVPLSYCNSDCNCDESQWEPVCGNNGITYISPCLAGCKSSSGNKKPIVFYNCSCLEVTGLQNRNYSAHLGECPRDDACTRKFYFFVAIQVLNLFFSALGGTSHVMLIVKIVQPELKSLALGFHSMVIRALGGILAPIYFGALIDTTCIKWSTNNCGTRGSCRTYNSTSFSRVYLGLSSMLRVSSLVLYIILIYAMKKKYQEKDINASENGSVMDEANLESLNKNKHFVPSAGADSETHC

[3] = prior drug-drug interaction study, Rosuvastatin substrate of OATPs & BCRP; cited from earlier work
[4] = prior drug-drug interaction study, Digoxin a pgp-substrate; cited from earlier work

C[C@]1(O)[C@H](n2ccc(=O)[nH]c2=O)O[C@](F)(CO)[C@H]1O [Compound A-1]
change of exposure on increasing Compound (III) dose from 400 to 800 mg ([1]; HCV GT 1 patients): less than proportionally
exposure increase caused by Odalasvir ([2]; DDI study results): 1.5 ×
exposure increase caused by SMV ([2]; DDI study results): no apparent effect

C[C@H](NP(=O)(O)OC[C@@]1(F)O[C@@H](n2ccc(=O)[nH]c2=O)[C@](C)(O)[C@@H]1O)C(=O)O [Compound A-3]
exposure increase caused by Odalasvir ([2]; DDI study results): 2.6 ×
exposure increase caused by SMV ([2]; DDI study results): 1.6 ×

COc1ccc2c(O[C@@H]3C[C@H]4C(=O)N[C@]5(C(=O)NS(=O)(=O)C6CC6)C[C@H]5/C=C\CCCCN(C)C(=O)[C@@H]4C3)cc(-c3nc(C(C)C)cs3)nc2c1C [SMV, Simeprevir, reference compound]
in vitro inhibition of BSEP (BSEP): strong/moderate
in vitro inhibition of MRP2 (MRP2): strong/moderate
observed exposure in Cohort 1 / group (i) versus anticipated ([1]; Compound (III) 400 mg, ODV 50 mg QD, SMV 100 mg QD): higher than anticipated
decrease of exposure on reducing Simeprevir dosing from 100 mg to 75 mg QD ([1]; in vivo): less than proportionally
in vitro inhibition of P-gp (P-gp): strong/moderate
in vitro inhibition of OATP1B1 (OATP1B1): strong in vitro inhibition
increase in Rosuvastatin exposure [3]: 3 fold
exposure increase caused by Odalasvir ([2]; DDI study results): 1.6 ×
exposure increase, effect of the three Compounds ([2]; DDI study results): 1.6 ×
increase of exposure with the combination of the three drugs ([2]; human in vivo study): 1.6 times
effect of Compound (III) on exposure / bioavailability ([2]; human subjects): no apparent effect; also recorded: does not alter
increase in exposure of Digoxin [4]: 35%
